Source: ChEMBL document CHEMBL1129725, “Synthesis and antitumor activity of 7-substituted 20(RS)-camptothecin analogues” (Bioorg Med Chem Lett, 1996)

What was measured:
Type in all cases: functional, cell-based
Caov-3 cell line = experiment: Cytotoxicity against CAOV-3 human tumor cell lines
A 172 = experiment: Cytotoxicity against A-172 human tumor cell lines
[1] = test system: KATO III stomach cancer cell line; experiment: Cytotoxicity against KATO-III human tumor cell lines
DLD-1 = experiment: Cytotoxicity against DLD-1 human tumor cell lines
L1210 = experiment: Cytotoxicity against L1210 tumor cell lines in mice; conditions: Mus musculus

## CC[C@@]1(O)C(=O)OCc2c1cc1n(c2=O)Cc2cc3ccccc3nc2-1 [CAMPTOTHECIN]
Caov-3 cell line
  IC50: 30 nM
A 172
  IC50: 140 nM
[1]
  IC50: 1170 nM
DLD-1
  IC50: 210 nM
L1210
  IC50: 180 nM

## CCC1(O)C(=O)OCc2c1cc1n(c2=O)Cc2c-1nc1ccccc1c2CCN(C(=O)OCc1ccccc1)C(C)C (stereo not given)
Caov-3 cell line
  IC50: 41 nM
A 172
  IC50: 950 nM
[1]
  IC50: 1850 nM
DLD-1
  IC50: 1830 nM
L1210
  IC50: 1290 nM

## CCC1(O)C(=O)OCc2c1cc1n(c2=O)Cc2c-1nc1ccccc1c2CCNCCOC(C)=O (stereo not given)
Caov-3 cell line
  IC50: 880 nM
A 172
  IC50: 740 nM
[1]
  IC50: 820 nM
DLD-1
  IC50: 3480 nM
L1210
  IC50: 4360 nM

## CCC1(O)C(=O)OCc2c1cc1n(c2=O)Cc2c-1nc1ccccc1c2CCNCCO (stereo not given)
Caov-3 cell line
  IC50: 4630 nM
A 172
  IC50: 23300 nM
[1]
  IC50: 47800 nM
DLD-1
  IC50: 8790 nM
L1210
  IC50: 13000 nM

## CCCN(CCc1c2c(nc3ccccc13)-c1cc3c(c(=O)n1C2)COC(=O)C3(O)CC)C(=O)OCc1ccccc1 (stereo not given)
Caov-3 cell line
  IC50: 140 nM
A 172
  IC50: 2330 nM
[1]
  IC50: 510 nM
DLD-1
  IC50: 550 nM
L1210
  IC50: 1090 nM

## CCC1(O)C(=O)OCc2c1cc1n(c2=O)Cc2c-1nc1ccccc1c2CCN1CCCCC1 (stereo not given)
Caov-3 cell line
  IC50: > 100000 nM
A 172
  IC50: 51100 nM
[1]
  IC50: > 100000 nM
DLD-1
  IC50: > 100000 nM
L1210
  IC50: > 100000 nM

## CCC1(O)C(=O)OCc2c1cc1n(c2=O)Cc2c-1nc1ccccc1c2CCN1CCOCC1 (stereo not given)
Caov-3 cell line
  IC50: 42200 nM
A 172
  IC50: 81800 nM
[1]
  IC50: 82000 nM
DLD-1
  IC50: > 100000 nM
L1210
  IC50: > 100000 nM

## CCNCCc1c2c(nc3ccccc13)-c1cc3c(c(=O)n1C2)COC(=O)C3(O)CC (stereo not given)
Caov-3 cell line
  IC50: 200 nM
A 172
  IC50: 85 nM
[1]
  IC50: 360 nM
DLD-1
  IC50: 440 nM
L1210
  IC50: 640 nM

## CCC1(O)C(=O)OCc2c1cc1n(c2=O)Cc2c-1nc1ccccc1c2CCN1CCCC1 (stereo not given)
Caov-3 cell line
  IC50: > 100000 nM
A 172
  IC50: > 100000 nM
[1]
  IC50: > 100000 nM
DLD-1
  IC50: > 100000 nM
L1210
  IC50: > 100000 nM

## CCC1(O)C(=O)OCc2c1cc1n(c2=O)Cc2c-1nc1ccccc1c2CCN(CCOC(C)=O)C(=O)OCc1ccccc1 (stereo not given)
Caov-3 cell line
  IC50: 4480 nM
A 172
  IC50: 18600 nM
[1]
  IC50: 16600 nM
DLD-1
  IC50: 15800 nM
L1210
  IC50: 9080 nM

## CCC1(O)C(=O)OCc2c1cc1n(c2=O)Cc2c-1nc1ccccc1c2CCN(Cc1ccccc1)C(=O)OCc1ccccc1 (stereo not given)
Caov-3 cell line
  IC50: 1970 nM
A 172
  IC50: 1180 nM
[1]
  IC50: 14000 nM
DLD-1
  IC50: 1060 nM
L1210
  IC50: 700 nM

## CCN(CCc1c2c(nc3cc4c(cc13)OCO4)-c1cc3c(c(=O)n1C2)COC(=O)C3(O)CC)C(=O)OCc1ccccc1 (stereo not given)
Caov-3 cell line
  IC50: 1740 nM
A 172
  IC50: 2830 nM
[1]
  IC50: 23100 nM
DLD-1
  IC50: 24200 nM
L1210
  IC50: 3520 nM

## CCC1(O)C(=O)OCc2c1cc1n(c2=O)Cc2c-1nc1ccccc1c2CCNC(C)C (stereo not given)
Caov-3 cell line
  IC50: 41 nM
A 172
  IC50: 110 nM
[1]
  IC50: 40 nM
DLD-1
  IC50: 110 nM
L1210
  IC50: 130 nM

## CCC1(O)C(=O)OCc2c1cc1n(c2=O)Cc2c-1nc1ccccc1c2CCN(CCO)C(=O)OCc1ccccc1 (stereo not given)
Caov-3 cell line
  IC50: 1140 nM
A 172
  IC50: 1920 nM
[1]
  IC50: 13800 nM
DLD-1
  IC50: 9720 nM
L1210
  IC50: 2900 nM

## CCC1(O)C(=O)OCc2c1cc1n(c2=O)Cc2c-1nc1ccccc1c2CCNCc1ccccc1 (stereo not given)
Caov-3 cell line
  IC50: 170 nM
A 172
  IC50: 280 nM
[1]
  IC50: 850 nM
DLD-1
  IC50: 310 nM
L1210
  IC50: 4030 nM
